Tested on: U. maydis wildtype strains
Experiment: Growth-assay of U. maydis strains in 384 well MTPs (FIG. 3A, absorbance at OD620)
Type: cell-based, Ustilago maydis
Conditions: Hygromycin B 200 μg/ml, initial OD620 0,18, 1x minimal medium with 0,1% Kelzan, 30° C.
Protocol: FIG. 3 illustrates growth-assay of U. maydis strains in 384 well MTPs. • A: The kinetik of the absorbance at OD620 for U. maydis wildtype strains was determined in a 384 well MTP using a Tecan ultra reader (rombus). As control served a strain, to which Hygromycin B was added in a concentration of 200 μg/ml (crosses). The initial OD620 for both strains was 0,18. […] GFP fluorescence of a U. maydis strain, in which GFP expression is controlled by the strong constitutive OMA promoter (squares), was determined in a Tecan plus reader. The excitation wavelength was 485 nm, the emission wavelength was 535 nm. […] Compared to lower temperatures, the increase in OD620 and the increase in fluorescence was faster. Experimental procedures: U. maydis strains where treated as described before in the Examples. The solution contained 1×minimal medium, 0,1% Kelzan and the assay was performed at 30° C. All experiments where repeated in independent duplicates.

## CN[C@H]1C[C@@H](N)[C@H](O)[C@@H](O[C@@H]2O[C@H](CO)[C@H](O)[C@@H]3OC4(O[C@H]23)O[C@H]([C@@H](N)CO)[C@H](O)[C@H](O)[C@H]4O)[C@@H]1O (stereo partly shown) [Hygromycin B]
  course of optical density (OD620) over time: continuous decrease in optical density

— US6924143B2, “Method for increasing the growth rate of cells in static liquid media” (priority 2001, dated 2005)
